# Assay results as given in ChEMBL document CHEMBL5380862, “Unsymmetrical Phosphodiesters as GPR84 Antagonists with High Blood Exposure for the Treatment of Lung Inflammation” (J Med Chem, 2023).
# Activity calls are given as the source filed them. The rule behind the calls is not given here.
# Columns and labels:
# [1] = Aqueous solubility of the compound incubated overnight by HPLC-DAD analysis; assay type: physicochemical; conditions: aqueous medium
# [2] = AUClast in ICR mouse at 5 mg/kg, po administered as single dose; assay type: ADME, organism-based; parameters: dose 5 mg/kg, route po; conditions: in vivo
# [3] = Oral bioavailability in ICR mouse at 5 mg/kg administered as single dose; assay type: ADME, organism-based; conditions: in vivo
# [4] = Drug distribution in mouse plasma at 5 mg/kg, po administered as single dose and measured after 0.5 hrs by LC-MS analysis; assay type: ADME, organism-based
# [5] = Drug distribution in mouse plasma at 5 mg/kg, po administered as single dose and measured after 2 hrs by LC-MS analysis; assay type: ADME, organism-based
# [6] = Drug distribution in mouse plasma at 5 mg/kg, po administered as single dose and measured after 8 hrs by LC-MS analysis; assay type: ADME, organism-based; conditions: read-out: Drug uptake
# [7] = Drug distribution in mouse lung at 5 mg/kg, po administered as single dose and measured after 0.5 hrs by LC-MS analysis; assay type: ADME, organism-based; conditions: read-out: Drug uptake
# [8] = Drug distribution in mouse lung at 5 mg/kg, po administered as single dose and measured after 2 hrs by LC-MS analysis; assay type: ADME, organism-based; conditions: read-out: Drug uptake
# [9] = Drug distribution in mouse liver at 5 mg/kg, po administered as single dose and measured after 0.5 hrs by LC-MS analysis; assay type: ADME, organism-based; conditions: read-out: Drug uptake
# [10] = Drug distribution in mouse liver at 5 mg/kg, po administered as single dose and measured after 2 hrs by LC-MS analysis; assay type: ADME, organism-based; conditions: read-out: Drug uptake
# [11] = Drug distribution in mouse liver at 5 mg/kg, po administered as single dose and measured after 8 hrs by LC-MS analysis; assay type: ADME, organism-based; conditions: read-out: Drug uptake
# Neutrophil [12] = assay: Inhibition of cell migration in 3-hydroxydodecanoic acid-stimulated mouse CD11bpositive Ly6Gpositive neutrophils at 0.01 to 1 uM incubated for 1.5 hrs by flow cytometric analysis; assay type: functional, cell-based; conditions: dose 0.01-1 µM
# Neutrophil [13] = assay: Inhibition of cell migration in 6-n-[…]-stimulated mouse CD11bpositive Ly6Gpositive neutrophils at 0.01 to 1 uM incubated for 1.5 hrs by flow cytometric analysis; assay type: functional, cell-based; conditions: dose 0.01-1 µM
# Monocyte = assay: Inhibition of cell migration in 6-n-[…]-stimulated mouse CD11bpositive Ly6Cpositive monocyte at 0.01 to 1 uM incubated for 1.5 hrs by flow cytometric analysis; assay type: functional, cell-based; conditions: dose 0.01-1 µM
# [14] = target: G-protein coupled receptor 84 (Mus musculus) (UniProt Q8CIM5); assay: Antagonist activity at mouse GPR84 expressed in HEK293 cells co-expressing Galpha16 assessed as inhibition of 6-OAU induced calcium response incubated for 10 mins by calcium mobilization assay; assay type: functional, cell-based; conditions: filed as antagonist
# [15] = target: T1, Free fatty acid receptor 3 (Homo sapiens) (UniProt O14843); assay: Antagonist activity at GPR41 (unknown origin) expressed in HEK293 cells co-expressing Galpha16 assessed as inhibition of sodium butyrate induced calcium response upto 100 uM incubated for 10 mins by calcium mobilization assay; assay type: functional, cell-based
# T1 sequence (whole entry): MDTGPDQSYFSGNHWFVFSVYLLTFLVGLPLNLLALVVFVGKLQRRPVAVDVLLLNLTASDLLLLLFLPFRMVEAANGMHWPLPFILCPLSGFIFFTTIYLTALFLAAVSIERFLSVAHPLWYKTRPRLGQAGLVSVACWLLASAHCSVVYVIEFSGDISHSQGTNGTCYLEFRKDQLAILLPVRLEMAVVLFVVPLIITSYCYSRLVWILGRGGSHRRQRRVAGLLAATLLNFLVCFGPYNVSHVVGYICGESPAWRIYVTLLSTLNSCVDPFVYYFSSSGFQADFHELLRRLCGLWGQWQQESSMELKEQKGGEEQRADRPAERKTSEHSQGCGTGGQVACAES
# [16] = target: T2, Free fatty acid receptor 4 (Homo sapiens) (UniProt Q5NUL3); assay: Antagonist activity at GPR120 (unknown origin) expressed in HEK293 cells co-expressing Galpha16 assessed as inhibition of TUG-981 induced calcium response upto 100 uM incubated for 10 mins by calcium mobilization assay; assay type: functional, cell-based
# T2 sequence (whole entry): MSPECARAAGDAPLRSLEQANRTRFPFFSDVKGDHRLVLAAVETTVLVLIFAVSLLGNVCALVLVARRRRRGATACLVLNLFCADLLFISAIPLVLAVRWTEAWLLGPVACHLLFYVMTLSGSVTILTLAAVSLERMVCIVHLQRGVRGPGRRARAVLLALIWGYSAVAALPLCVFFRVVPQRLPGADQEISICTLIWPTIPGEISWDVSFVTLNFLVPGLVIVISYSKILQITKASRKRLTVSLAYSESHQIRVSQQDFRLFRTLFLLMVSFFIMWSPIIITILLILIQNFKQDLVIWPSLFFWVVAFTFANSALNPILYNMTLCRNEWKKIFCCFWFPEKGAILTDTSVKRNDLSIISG
# [17] = target: T3, Alpha-1A adrenergic receptor (Homo sapiens) (UniProt P35348); assay: Antagonist activity at ARalpha1A (unknown origin) expressed in HEK293 cells co-expressing Galpha16 assessed as inhibition of Phenylephrine induced calcium response upto 100 uM incubated for 10 mins by calcium mobilization assay; assay type: functional, cell-based
# T3 sequence (whole entry): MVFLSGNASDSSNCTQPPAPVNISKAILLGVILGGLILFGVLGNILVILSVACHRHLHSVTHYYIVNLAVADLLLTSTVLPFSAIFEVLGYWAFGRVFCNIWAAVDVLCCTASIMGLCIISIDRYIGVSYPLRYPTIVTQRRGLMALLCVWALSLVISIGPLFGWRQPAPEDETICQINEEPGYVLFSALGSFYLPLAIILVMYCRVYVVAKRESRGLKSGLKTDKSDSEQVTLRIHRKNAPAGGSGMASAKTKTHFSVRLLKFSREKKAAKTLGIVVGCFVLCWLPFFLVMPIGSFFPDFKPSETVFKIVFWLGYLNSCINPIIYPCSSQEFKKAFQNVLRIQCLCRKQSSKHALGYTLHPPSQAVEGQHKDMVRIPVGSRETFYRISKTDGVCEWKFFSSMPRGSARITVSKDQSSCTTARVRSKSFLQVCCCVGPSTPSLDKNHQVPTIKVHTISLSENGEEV
# [18] = target: Beta-1 adrenergic receptor (Homo sapiens) (UniProt P08588); assay: Antagonist activity at ARbeta1 (unknown origin) expressed in HEK293 cells co-expressing Galpha16 assessed as inhibition of Isoproterenol induced calcium response upto 100 uM incubated for 10 mins by calcium mobilization assay; assay type: functional, cell-based
# [19] = target: Beta-2 adrenergic receptor (Homo sapiens) (UniProt P07550); assay: Antagonist activity at ARbeta2 (unknown origin) expressed in HEK293 cells co-expressing Galpha16 assessed as inhibition of Isoproterenol induced calcium response upto 100 uM incubated for 10 mins by calcium mobilization assay; assay type: functional, cell-based
# [20] = target: Beta-3 adrenergic receptor (Homo sapiens) (UniProt P13945); assay: Antagonist activity at ARbeta3 (unknown origin) expressed in HEK293 cells co-expressing Galpha16 assessed as inhibition of Isoproterenol induced calcium response upto 100 uM incubated for 10 mins by calcium mobilization assay; assay type: functional, cell-based
# [21] = target: D(1A) dopamine receptor (Homo sapiens) (UniProt P21728); assay: Antagonist activity at DRD1 (unknown origin) expressed in HEK293 cells co-expressing Galpha16 assessed as inhibition of dopamine induced calcium response upto 100 uM incubated for 10 mins by calcium mobilization assay; assay type: functional, cell-based
# Chain of D(1A) dopamine receptor (Homo sapiens) (P21728 whole entry): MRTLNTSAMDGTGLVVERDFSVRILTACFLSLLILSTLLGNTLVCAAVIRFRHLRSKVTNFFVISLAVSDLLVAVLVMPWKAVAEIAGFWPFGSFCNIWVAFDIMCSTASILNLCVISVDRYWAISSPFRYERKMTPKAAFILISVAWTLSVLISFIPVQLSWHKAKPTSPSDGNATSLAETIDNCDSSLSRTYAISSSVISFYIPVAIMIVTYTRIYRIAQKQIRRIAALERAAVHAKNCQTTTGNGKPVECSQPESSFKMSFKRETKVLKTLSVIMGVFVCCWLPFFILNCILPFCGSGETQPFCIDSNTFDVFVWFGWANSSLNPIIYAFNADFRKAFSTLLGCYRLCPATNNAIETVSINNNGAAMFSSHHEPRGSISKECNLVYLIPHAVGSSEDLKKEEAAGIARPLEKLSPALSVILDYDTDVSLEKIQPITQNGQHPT
# Chain of Beta-3 adrenergic receptor (Homo sapiens) (P13945 whole entry, looked up): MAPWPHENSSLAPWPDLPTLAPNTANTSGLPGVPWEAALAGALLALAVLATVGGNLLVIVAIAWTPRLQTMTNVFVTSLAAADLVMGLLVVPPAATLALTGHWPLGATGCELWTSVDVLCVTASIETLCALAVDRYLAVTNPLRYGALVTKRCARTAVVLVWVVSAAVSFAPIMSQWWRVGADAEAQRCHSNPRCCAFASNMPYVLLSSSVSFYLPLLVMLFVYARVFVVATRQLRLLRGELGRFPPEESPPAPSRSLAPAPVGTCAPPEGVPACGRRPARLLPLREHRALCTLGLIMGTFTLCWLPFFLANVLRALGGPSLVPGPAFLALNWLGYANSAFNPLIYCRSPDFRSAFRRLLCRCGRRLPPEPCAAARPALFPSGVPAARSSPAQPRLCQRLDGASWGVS
# Chain of Beta-1 adrenergic receptor (Homo sapiens) (P08588 whole entry, looked up): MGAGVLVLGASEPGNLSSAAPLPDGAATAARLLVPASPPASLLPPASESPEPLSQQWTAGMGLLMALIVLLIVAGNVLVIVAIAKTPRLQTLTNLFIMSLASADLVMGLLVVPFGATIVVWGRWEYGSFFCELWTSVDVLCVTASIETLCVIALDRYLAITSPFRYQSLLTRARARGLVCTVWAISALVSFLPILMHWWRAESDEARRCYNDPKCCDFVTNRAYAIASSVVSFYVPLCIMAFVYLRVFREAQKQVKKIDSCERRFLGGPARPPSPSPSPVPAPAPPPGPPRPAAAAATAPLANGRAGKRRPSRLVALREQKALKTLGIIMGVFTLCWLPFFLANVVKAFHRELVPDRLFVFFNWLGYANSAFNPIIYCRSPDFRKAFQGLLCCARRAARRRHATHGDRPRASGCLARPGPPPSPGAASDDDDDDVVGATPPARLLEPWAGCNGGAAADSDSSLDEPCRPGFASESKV
# Chain of Beta-2 adrenergic receptor (Homo sapiens) (P07550 whole entry, looked up): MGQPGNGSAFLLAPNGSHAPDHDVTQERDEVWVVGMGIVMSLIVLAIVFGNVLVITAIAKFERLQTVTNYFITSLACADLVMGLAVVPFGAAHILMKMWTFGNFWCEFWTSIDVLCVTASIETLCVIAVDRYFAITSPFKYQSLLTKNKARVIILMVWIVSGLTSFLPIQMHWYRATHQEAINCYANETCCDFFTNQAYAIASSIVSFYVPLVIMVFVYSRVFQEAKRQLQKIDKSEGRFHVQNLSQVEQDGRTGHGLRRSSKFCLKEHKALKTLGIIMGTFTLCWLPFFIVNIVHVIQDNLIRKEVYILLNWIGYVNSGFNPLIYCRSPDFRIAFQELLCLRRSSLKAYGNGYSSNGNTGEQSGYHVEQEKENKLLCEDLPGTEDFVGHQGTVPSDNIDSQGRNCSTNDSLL
# Chain of G-protein coupled receptor 84 (Mus musculus) (Q8CIM5 whole entry): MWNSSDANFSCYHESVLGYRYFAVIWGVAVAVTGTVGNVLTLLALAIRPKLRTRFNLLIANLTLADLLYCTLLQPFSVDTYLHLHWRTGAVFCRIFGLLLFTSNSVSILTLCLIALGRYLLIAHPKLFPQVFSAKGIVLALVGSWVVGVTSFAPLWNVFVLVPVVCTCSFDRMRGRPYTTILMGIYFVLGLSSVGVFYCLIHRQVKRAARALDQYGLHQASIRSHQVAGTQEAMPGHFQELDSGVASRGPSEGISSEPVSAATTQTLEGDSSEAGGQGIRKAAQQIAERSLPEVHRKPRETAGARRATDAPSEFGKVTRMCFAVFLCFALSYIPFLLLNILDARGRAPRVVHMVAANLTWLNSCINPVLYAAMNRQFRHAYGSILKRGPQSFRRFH
compound,measurement,setting,value
O=P([O-])(OC1=Cc2c(Cl)cccc2Sc2ccccc21)OC1=Cc2c(Cl)cccc2Sc2ccccc21.[Na+],solubility,[1],891 µg/mL
same,AUC(0-t),[2],502 ng·h/mL
same,bioavailability,[3],12%
same,concentration at 0.5 h,[4],135 ng/mL
same,concentration at 2 h,[5],393 ng/mL
same,concentration at 8 h,[6],50.7 ng/mL
same,concentration at 0.5 h,[7],18.6 ng/g
same,concentration at 2 h,[8],60.5 ng/g
same,concentration at 0.5 h,[9],297 ng/g
same,concentration at 2 h,[10],1960 ng/g
same,concentration at 8 h,[11],1180 ng/g
same,inhibition,Neutrophil [12],Active
same,inhibition,Neutrophil [13],Active
same,inhibition,Monocyte,Active
same,inhibition,[14],Active
same,inhibition,[15],inactive
same,inhibition,[16],inactive
same,inhibition,[17],inactive
same,inhibition,[18],inactive
same,inhibition,[19],inactive
same,inhibition,[20],inactive
same,inhibition,[21],inactive
